Laboratory results published in patent US12396995B2, “Substituted 4-aminoisoindoline-1,3-dione compounds and second active agents for combined use” (Celgene Corporation, priority 2019, dated 2025).

Experiments:
[1] = tested on: WSU-DLCL2 DLBCL xenograft tumors; experiment: WSU-DLCL2 (DLBCL) xenograft model, Compound 1 alone and with 5-azacytidine; format: in vivo, female SCID mice
Experimental: Anti-tumor activity of Compound 1 alone and in combination with 5-azacytidine was studies in WSU-DLCL2 (DLBCL) xenograft model. Compound 1 (1 mg/kg) was administered once daily for 5 consecutive days followed by 2 days off (5 D on/2 D off) and 5-azacytidine (1 mg/kg) was administered once daily (QD). Compound 1 (1 mg/kg, 5 D on/2 D off) and 5-azacytidine (1 mg/kg, QD) inhibited WSU-DLCL2 DLBCL tumor growth.
Methods: Xenograft study was conducted with female SCID mice bearing WSU-DLCL2 DLBCL xenograft tumors. Female SCID mice were inoculated subcutaneously with WSU-DLCL2 cells in the flank region above the right hind leg. Following inoculation of animals, the tumors were allowed to grow to approximately 200 mm^3 prior to randomization. On day 14 following tumor cell inoculation, the mice bearing WSU-DLCL2 tumors ranging between 150 and 250 mm^3 were pooled together and randomized into various treatment groups. Compound 1 was formulated in 0.5% Methyl Cellulose, 0.25% Tween 80 and 50 mM Citrate pH 3 in water. 5-Azacytidine was formulated in 0.9% saline. Compound 1 (1 mg/kg) was orally administered with three cycles of once daily for 5 consecutive days followed by 2 days off starting from day 14 after tumor cell inoculation. […] Tumors were measured twice a week using calipers and tumor volumes were calculated using the formula of W^2×L/2. […]

[2] = tested on: WSU-DLCL2 DLBCL xenograft tumors; experiment: WSU-DLCL2 (DLBCL) xenograft model, Compound 1 alone and with tazemetostat; format: in vivo, female SCID mice
Experimental: Anti-tumor activity of Compound 1 alone and in combination with tazemetostat was studied in WSU-DLCL2 (DLBCL) xenograft model. Compound 1 (1 mg/kg) was administered once daily for 5 consecutive days followed by 2 days off (5 D on/2 D off) and tazemetostat (200 mg/kg) was administered twice daily (BID).
Methods: Xenograft study was conducted with female SCID mice bearing WSU-DLCL2 DLBCL xenograft tumors. Female SCID mice were inoculated subcutaneously with WSU-DLCL2 cells in the flank region above the right hind leg. Following inoculation of animals, the tumors were allowed to grow to approximately 200 mm^3 prior to randomization. On day 14 following tumor cell inoculation, the mice bearing WSU-DLCL2 tumors ranging between 150 and 250 mm^3 were pooled together and randomized into various treatment groups. Compound 1 was formulated in 0.5% Methyl Cellulose, 0.25% Tween 80 and 50 mM Citrate pH 3 in water. Tazemetostat was formulated in CMC-Tween. Compound 1 (1 mg/kg) was orally administered with three cycles of once daily for 5 consecutive days followed by 2 days off starting from day 14 after tumor cell inoculation. Tazemetostat 200 mg/kg) was orally administered twice day (BID) for three weeks. In combination group the animals received Compound 1 (1 mg/kg/5 D on/2 D off) and tazemetostat (200 mg/kg, BID) simultaneously for three weeks starting from day 14 after tumor cell inoculation. Tumors were measured twice a week using calipers and tumor volumes were calculated using the formula of W^2×L/2. Statistical analysis was performed using a one-way or 2-way analysis of variance (ANOVA). Synergy calculations were performed using fractional product method.

[3] = tested on: primary CLL cells (CD5+CD19+ tumor cells); experiment: Ex vivo apoptosis of B-cell CLL patient cells, Compound 1 with ibrutinib (flow cytometry, Caspase 3); format: cell-based, human; details: 144 hrs
Experimental: After 144 hrs of treatment with both the agents, flow cytometric analysis was used to determine the number of tumor cells that were viable or apoptotic.
The tumor cell count was assessed by staining the patient PBMCs in each condition with tumor cell surface markers CD5 & CD19 along with Live/Dead fixable dye to exclude the dead cells and followed by intracellular staining for Caspase3 antibody to identify the apoptotic cells and was measured by flow cytometry (Attune NxT, Thermo Fisher). The live tumor cell count for each condition was calculated by normalizing to the precision count beads added to each sample.
For apoptosis analysis, the percentage of apoptosis combining both “early” (Caspase 3 positive and Live-Dead fixable dye negative) and “late” apoptosis (Caspase 3 and Live-Dead fixable dye positive) cell gates subtracting the baseline DMSO value was graphed using GraphPad Prism 8.0.0.0. The Ymax (maximal percentage of apoptosis achieved) values from apoptosis curves were calculated by performing a nonlinear regression curve fitting using log(agonist) vs. normalized response—Variable slope analysis and identifying the maximum value on GraphPad Prism 8.0.0 (Table 9).

O=C1CC[C@H](N2C(=O)c3cccc(NCc4ccc(CN5CC(N6CCOCC6)C5)cc4F)c3C2=O)C(=O)N1 [Compound 1, (S)-2-(2,6-dioxopiperidin-3-yl)-4-((2-fluoro-4-((3-morpholinoazetidin-1-yl)methyl)benzyl)amino)isoindoline-1,3-dione]
combination antitumor activity (fractional product method) ([1]; Compound 1 1 mg/kg and 5-azacytidine 1 mg/kg): synergistic
tumor volume reduction compared to vehicle control ([1]; Compound 1 1 mg/kg in combination with 5-azacytidine 1 mg/kg): 74%
combination antitumor activity (fractional product method) ([2]; Compound 1 1 mg/kg and tazemetostat 200 mg/kg): synergistic
tumor volume reduction compared to vehicle control ([2]; Compound 1 1 mg/kg in combination with tazemetostat 200 mg/kg): 93.7%
inhibition of tumor growth ([2]; single agent Compound 1 1 mg/kg oral, 5 D on/2 D off, three cycles): −45.6%
Ymax of Pt 11 (%), maximal apoptosis ([3]; DMSO + Cpd1 DRC (no ibrutinib)): 14.40%
Ymax of Pt 12 (%), maximal apoptosis ([3]; DMSO + Cpd1 DRC (no ibrutinib)): 14.19%
Ymax of Pt 13 (%), maximal apoptosis ([3]; DMSO + Cpd1 DRC (no ibrutinib)): 36.93%
Ymax of Pt 14 (%), maximal apoptosis ([3]; DMSO + Cpd1 DRC (no ibrutinib)): 17.21%
Ymax of Pt 11 (%), maximal apoptosis ([3]; ibrutinib 0.001 uM + Cpd1 DRC): 19.80%
Ymax of Pt 12 (%), maximal apoptosis ([3]; ibrutinib 0.001 uM + Cpd1 DRC): 15.67%
Ymax of Pt 13 (%), maximal apoptosis ([3]; ibrutinib 0.001 uM + Cpd1 DRC): 26.75%
Ymax of Pt 14 (%), maximal apoptosis ([3]; ibrutinib 0.001 uM + Cpd1 DRC): 17.87%
Ymax of Pt 11 (%), maximal apoptosis ([3]; ibrutinib 0.01 uM + Cpd1 DRC): 18.66%
Ymax of Pt 12 (%), maximal apoptosis ([3]; ibrutinib 0.01 uM + Cpd1 DRC): 13.66%
Ymax of Pt 13 (%), maximal apoptosis ([3]; ibrutinib 0.01 uM + Cpd1 DRC): 30.53%
Ymax of Pt 14 (%), maximal apoptosis ([3]; ibrutinib 0.01 uM + Cpd1 DRC): 18.30%
Ymax of Pt 11 (%), maximal apoptosis ([3]; ibrutinib 0.1 uM + Cpd1 DRC): 12.33%
Ymax of Pt 12 (%), maximal apoptosis ([3]; ibrutinib 0.1 uM + Cpd1 DRC): 17.47%
Ymax of Pt 13 (%), maximal apoptosis ([3]; ibrutinib 0.1 uM + Cpd1 DRC): 32.49%
Ymax of Pt 14 (%), maximal apoptosis ([3]; ibrutinib 0.1 uM + Cpd1 DRC): 13.59%
Ymax of Pt 11 (%), maximal apoptosis ([3]; ibrutinib 1 uM + Cpd1 DRC): 19.73%
Ymax of Pt 12 (%), maximal apoptosis ([3]; ibrutinib 1 uM + Cpd1 DRC): 22.48%
Ymax of Pt 13 (%), maximal apoptosis ([3]; ibrutinib 1 uM + Cpd1 DRC): 29.70%
Ymax of Pt 14 (%), maximal apoptosis ([3]; ibrutinib 1 uM + Cpd1 DRC): 17.65%
Ymax of Pt 11 (%), maximal apoptosis ([3]; ibrutinib 10 uM + Cpd1 DRC): 29.73%
Ymax of Pt 12 (%), maximal apoptosis ([3]; ibrutinib 10 uM + Cpd1 DRC): 24.18%
Ymax of Pt 13 (%), maximal apoptosis ([3]; ibrutinib 10 uM + Cpd1 DRC): 35.37%
Ymax of Pt 14 (%), maximal apoptosis ([3]; ibrutinib 10 uM + Cpd1 DRC): 19.33%
